In PMC11054528, “Evaluation of Physicochemical Properties of Ipsapirone Derivatives Based on Chromatographic and Chemometric Approaches” (Molecules, 2024):

Legend:
[1] = IAM-HPLC, immobilized artificial membrane chromatography (affinity to phospholipids); type: physicochemical; design: scale not given here; details: IAM.PC.DD2 column, pH 7.4
Text: In considering that lipophilicity is a known factor influencing passive diffusion across the BBB, this is an important observation. The affinity to phospholipids can also be determined using one-gradient protocols and the IAM column. CHIIAM can be used as a cut-off point to indicate the potential for promiscuous binding and interference with phospholipids.
The immobilized artificial membrane column (IAM.PC.DD2, 10 × 4.6 mm × 10.0 µm with a guard column (Regis Technologies; Morton Grove, IL, USA) was used for IAM-HPLC experiments. The column temperature was set to 30 °C. Similar to RP-HPLC, mobile phase A was a 50 mM ammonium acetate at pH 7.4, and mobile phase B was acetonitrile. The linear gradient from […] ACN was applied from 0 to 5.25 min and held at 98% ACN for 0.5 min at a constant flow rate of 1.5 mL/min.

[2] = target: human serum albumin (HSA) (Homo sapiens, UniProt P02768); test: HSA-HPLC, biomimetic chromatography on Chiralpak HSA column; type: in vitro ADME; design: purchased Daicel Chiral Technologies, West Chester, PA, USA; details: for LogKHSA: pH 7.4; for %HSA: pH 7.4, recalculated from logKHSA
Text: Utilizing columns modified by plasma proteins, such as human serum albumin (HSA), allows for estimating binding to plasma protein (PPB). Generally, PPB affects drug pharmacokinetics, including distribution, half-life, and clearance. While lipophilicity is a well-known factor in determining PPB, it should also be considered in early drug discovery. In general, more lipophilic compounds tend to have higher percentages of PP due to nonspecific interactions with proteins. However, hydrophilic compounds can also bind strongly to PP through […] and electrostatic interactions by binding in protein pockets.
For HSA-HPLC experiments, the column was Chiralpak® HSA (100 × 4 mm; 5 µm with safety guard column; Daicel Chiral Technologies, West Chester, PA, USA). The column temperature was set to 30 °C. The same phase A as in the IAM-HPLC case was used, and the mobile phase B was isopropanol (i-PrOH). The linear gradient from 0 to 20% i-PrOH was applied from 0 to 15 min, held at 20% i-PrOH for 12 min, and then returned to pure ammonium acetate solution. The mobile phase flow rate was 0.9 mL/min throughout the experiment. Three minutes of column recalibration was applied between each run. The retention times were collected at wavelengths between 190 and 300 nm, and the injection volume was 10 μL.

[3] = Fast gradient RP-HPLC on C18 column (CHI lipophilicity); type: physicochemical; details: for CHIC18 pH = 2.6 / CHIC18 pH = 7.4 / CHIC18 pH = 10.6: C18 column; for CHI LogP: from chromatographically determined CHI on nonionized forms (pH 10.6), CHI LogP = 0.054 × CHI − 1.467
Text: Considering the significant differences in the calculations obtained, the next step of our investigation considered the determination of lipophilicity using a chromatographic approach. Among the available protocols, the fast gradient approach developed by Valko was chosen because it enables the assessment of lipophilicity from a single chromatographic measurement. In addition, this approach enables the determination of the acid/basic properties of molecules through the addition of experiments under different pH conditions.
Therefore, the CHI under pH10.6 can be considered and converted to chromatographically determined LogP, called CHI LogP. A cluster analysis (CA) was performed to compare chromatographically determined and calculated lipophilicity. A CA can be used for the visualization of similarities and differences between studied objects, in this case, lipophilic parameters. The obtained results clearly indicate that significant differences between theoretical and experimental data occurred, and they formed two separate groups (Figure 1). The differences are also visible on the calculated correlation matrix (Figure 2).
For RP-HPLC experiments, a C18 Hypersil GOLD^TM (50 mm × 4.6 mm; 5.0 µm with a guard column; Thermo Scientific, Waltham, MA, USA) column was applied. The column temperature was set to 40 °C. Three water solutions were used as mobile phase A: acetic acid at pH 2.6, […] at pH 7.4, and 50 mM ammonium acetate at pH 10.5. Mobile phase B was acetonitrile (ACN). The linear gradient from 2 to 98% ACN was applied from 0 to 5.25 min and held at 98% ACN for 1.75. The mobile phase flow rate was 1.5 mL/min throughout the experiment.

Sequence of human serum albumin (HSA) (P02768 25-609): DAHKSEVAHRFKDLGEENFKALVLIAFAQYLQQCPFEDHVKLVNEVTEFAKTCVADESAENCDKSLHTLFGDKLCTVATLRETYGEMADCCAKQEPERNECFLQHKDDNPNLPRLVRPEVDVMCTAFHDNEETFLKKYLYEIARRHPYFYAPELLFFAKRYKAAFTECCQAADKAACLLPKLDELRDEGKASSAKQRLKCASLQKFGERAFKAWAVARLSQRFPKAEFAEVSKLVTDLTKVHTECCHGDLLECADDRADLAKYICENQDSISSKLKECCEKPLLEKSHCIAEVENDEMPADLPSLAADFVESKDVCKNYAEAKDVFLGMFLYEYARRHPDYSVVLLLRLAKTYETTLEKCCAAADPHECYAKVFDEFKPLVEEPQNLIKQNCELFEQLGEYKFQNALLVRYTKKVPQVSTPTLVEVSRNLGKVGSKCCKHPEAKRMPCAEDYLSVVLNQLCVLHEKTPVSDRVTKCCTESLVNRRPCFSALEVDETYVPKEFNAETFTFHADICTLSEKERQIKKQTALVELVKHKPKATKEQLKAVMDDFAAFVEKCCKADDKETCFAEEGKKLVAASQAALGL

| Compound | CHIIAM [1] | LogKHSA [2] | %HSA [2] | CHIC18 pH = 2.6 [3] | CHIC18 pH = 7.4 [3] | CHIC18 pH = 10.6 [3] | CHI LogP [3] | affinity to HSA, in words [2] | affinity to HSA compared with reference diclofenac [2] |
| --- | --- | --- | --- | --- | --- | --- | --- | --- | --- |
| COc1cccc(N2CCN(CCCCCCN3C(=O)c4ccccc4S3(=O)=O)CC2)c1 [molecule 14] | 41.42 | 0.93 | 90.46% | 55.41 | 94.73 | 99.75 | 3.92 |  |  |
| O=C1c2ccccc2S(=O)(=O)N1CCCCCCN1CCN(c2ccc(Cl)cc2)CC1 [molecule 17] | 46.32 | 1.57 | 98.36% | 61.34 | 106.56 | 110.38 | 4.49 |  |  |
| COc1ccccc1N1CCN(Cc2ccc(CN3C(=O)c4ccccc4S3(=O)=O)cc2)CC1 [molecule 26] | 41.48 | 1.19 | 94.87% | 55.76 | 100.20 | 100.01 | 3.93 |  |  |
| O=C1c2ccccc2S(=O)(=O)N1CCCCCCN1CCN(c2ccccc2)CC1 [molecule 12] | 41.59 | 1.00 | 91.87% | 55.26 | 93.84 | 100.78 | 3.98 |  |  |
| O=C1c2ccccc2S(=O)(=O)N1CCCCCN1CCN(c2ccccc2)CC1 [molecule 5] | 39.09 | 0.84 | 88.23% | 52.20 | 89.50 | 95.60 | 3.70 |  |  |
| O=C1c2ccccc2S(=O)(=O)N1CCCCN1CCN(c2ccc(Cl)cc2)CC1 [molecule 4] | 42.61 | 1.32 | 96.38% | 56.31 | 100.82 | 100.70 | 3.97 |  |  |
| O=C1c2ccccc2S(=O)(=O)N1CCCCN1CCN(c2cccc(Cl)c2Cl)CC1 [molecule 3] | 35.71 | 0.52 | 77.60% | 49.19 | 78.80 | 87.69 | 3.27 |  |  |
| O=C1c2ccccc2S(=O)(=O)N1CCCCCCN1CCN(c2cccc(Cl)c2)CC1 [molecule 16] | 46.73 | 1.71 | 99.06% | 61.89 | 108.61 | 111.92 | 4.58 |  |  |
| COc1ccccc1N1CCN(CCCCN2C(=O)c3ccccc3S2(=O)=O)CC1 [molecule 2] | 46.90 | 1.72 | 99.13% | 60.08 | 110.90 | 109.41 | 4.44 |  |  |
| O=C1c2ccccc2S(=O)(=O)N1CCCCCCN1CCN(c2cccc(C(F)(F)F)c2)CC1 [molecule 19] | 46.84 | 1.85 | 99.61% | 63.86 | 113.75 | 114.05 | 4.69 |  |  |
| O=C1c2ccccc2S(=O)(=O)N1CCCCCCN1CCN(c2cccc3sccc23)CC1 [molecule 25] | 45.96 | 1.57 | 98.37% | 60.65 | 101.68 | 108.64 | 4.40 |  |  |
| O=C1c2ccccc2S(=O)(=O)N1CCCCCCN1CCN(c2ccccc2F)CC1 [molecule 20] | 42.69 | 1.00 | 91.90% | 57.21 | 97.64 | 104.68 | 4.19 |  |  |
| O=C1c2ccccc2S(=O)(=O)N1CCCCCCN1CCN(c2cccc3ccccc23)CC1 [molecule 21] | 48.85 | 1.75 | 99.25% | 65.07 | 109.08 | 118.03 | 4.91 |  |  |
| O=C1c2ccccc2S(=O)(=O)N1CCCCCCN1CCN(c2ccccn2)CC1 [molecule 22] | 38.48 | 0.55 | 78.60% | 43.25 | 82.33 | 90.87 | 3.44 |  |  |
| O=C1c2ccccc2S(=O)(=O)N1CCCCCN1CCN(c2ncccn2)CC1 [molecule 9] | 34.40 | 0.58 | 79.78% | 48.71 | 74.93 | 81.12 | 2.91 |  |  |
| O=C1c2ccccc2S(=O)(=O)N1CCCCCCN1CCN(c2ncccn2)CC1 [molecule 23] | 34.77 | −0.05 | 47.66% | 41.03 | 80.76 | 89.54 | 3.37 | relatively low-binding to HAS |  |
| O=C1c2ccccc2S(=O)(=O)N1CCCCCCN1CCN(c2ccc(Cl)c(Cl)c2)CC1 [molecule 18] | 50.19 | 2.27 |  | 65.39 | 119.04 | 118.39 | 4.93 |  | higher affinity to reference diclofenac |
| O=C1c2ccccc2S(=O)(=O)N1CCCCCCN1CCN(c2nsc3ccccc23)CC1 [molecule 24] | 45.78 | 1.23 | 95.36% | 60.18 | 102.90 | 107.33 | 4.33 |  |  |
